{"source": "patent US20260285850A1", "about": "“SUBSTITUTED OXAZOLIDINONES AND IMIDAZOLINONES AS HERBICIDES” (FMC CORPORATION, priority 2023, published 2026)", "format_in_all_cases": "in vivo", "key": {"[1]": {"test_system": "green foxtail (Setaria viridis)", "experiment": "Test A preemergence soil spray, visual injury rating 0-100", "settings": "10 days", "in_short": "(§1)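 Plants were grown in a loam soil-sand blend and treated with test chemical in a non-phytotoxic solvent mixture containing surfactant, either sprayed on soil preemergence or applied postemergence to 2-10 cm plants. After 10 days in a greenhouse, injury was scored visually against untreated controls, 0 meaning no effect and 100 complete control.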"}, "[2]": {"test_system": "palmer (palmer amaranth, palmer pigweed, Amaranthus palmeri)", "experiment": "Test A preemergence soil spray, visual injury rating 0-100", "settings": "10 days", "in_short": "as §1"}, "[3]": {"test_system": "barnyardgrass (Echinochloa crus-galli)", "experiment": "Test A preemergence soil spray, visual injury rating 0-100", "settings": "10 days", "in_short": "as §1"}, "[4]": {"test_system": "ryegrass, Italian (italian ryegrass, Lolium multiflorum)", "experiment": "Test A preemergence soil spray, visual injury rating 0-100", "settings": "10 days", "in_short": "as §1"}, "[5]": {"test_system": "kochia (Bassia scoparia)", "experiment": "Test A preemergence soil spray, visual injury rating 0-100", "settings": "10 days", "in_short": "as §1"}, "[6]": {"test_system": "blackgrass (Alopecurus myosuroides)", "experiment": "Test A preemergence soil spray, visual injury rating 0-100", "settings": "10 days", "in_short": "as §1"}, "[7]": {"test_system": "soybean (Glycine max)", "experiment": "Test A preemergence soil spray, visual injury rating 0-100", "settings": "10 days", "in_short": "as §1"}, "[8]": {"test_system": "oat, wild (wild oat, Avena fatua)", "experiment": "Test A preemergence soil spray, visual injury rating 0-100", "settings": "10 days", "in_short": "as §1"}, "[9]": {"test_system": "corn (Zea mays)", "experiment": "Test A preemergence soil spray, visual injury rating 0-100", "settings": "10 days", "in_short": "as §1"}, "[10]": {"test_system": "wheat (Triticum aestivum)", "experiment": "Test A preemergence soil spray, visual injury rating 0-100", "settings": "10 days", "in_short": "as §1"}, "[11]": {"test_system": "ragweed (common ragweed, Ambrosia artemisiifolia)", "experiment": "Test A preemergence soil spray, visual injury rating 0-100", "settings": "10 days", "in_short": "as §1"}, "[12]": {"test_system": "barnyardgrass (Echinochloa crusgalli)", "experiment": "Test B flooded paddy test, visual plant response rating 0-100", "settings": "250 g ai/ha, Flood, applied to paddy water, evaluated after 13 days", "in_short": "(§2)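 Greenhouse, 13 d. Seedlings at 2-leaf stage, pots flooded to 3 cm, compound delivered into floodwater, water level held constant. Evaluated visually relative to controls.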"}, "[13]": {"test_system": "ducksalad (Heteranthera limosa)", "experiment": "Test B flooded paddy test, visual plant response rating 0-100", "settings": "250 g ai/ha, Flood, applied to paddy water, evaluated after 13 days", "in_short": "as §2"}, "[14]": {"test_system": "sedge, umbrella (small-flower umbrella sedge, Cyperus difformis)", "experiment": "Test B flooded paddy test, visual plant response rating 0-100", "settings": "250 g ai/ha, Flood, applied to paddy water, evaluated after 13 days", "in_short": "as §2"}, "[15]": {"test_system": "rice (Oryza sativa)", "experiment": "Test B flooded paddy test, visual plant response rating 0-100", "settings": "250 g ai/ha, Flood, applied to paddy water, evaluated after 13 days", "in_short": "as §2"}, "[16]": {"test_system": "green foxtail (Setaria viridis)", "experiment": "Test A postemergence application, visual injury rating 0-100", "in_short": "as §1"}, "[17]": {"test_system": "horseweed (Erigeron canadensis)", "experiment": "Test A postemergence application, visual injury rating 0-100", "in_short": "as §1"}, "[18]": {"test_system": "palmer (palmer amaranth, palmer pigweed, Amaranthus palmeri)", "experiment": "Test A postemergence application, visual injury rating 0-100", "in_short": "as §1"}, "[19]": {"test_system": "barnyardgrass (Echinochloa crus-galli)", "experiment": "Test A postemergence application, visual injury rating 0-100", "in_short": "as §1"}, "[20]": {"test_system": "ryegrass, Italian (italian ryegrass, Lolium multiflorum)", "experiment": "Test A postemergence application, visual injury rating 0-100", "in_short": "as §1"}, "[21]": {"test_system": "galium (catchweed bedstraw, Galium aparine)", "experiment": "Test A postemergence application, visual injury rating 0-100", "settings": "Postemergence, 16 g ai/ha, greenhouse 10 days; 0 no effect, 100 complete control", "in_short": "as §1"}, "[22]": {"test_system": "kochia (Bassia scoparia)", "experiment": "Test A postemergence application, visual injury rating 0-100", "in_short": "as §1"}, "[23]": {"test_system": "blackgrass (Alopecurus myosuroides)", "experiment": "Test A postemergence application, visual injury rating 0-100", "in_short": "as §1"}, "[24]": {"test_system": "soybean (Glycine max)", "experiment": "Test A postemergence application, visual injury rating 0-100", "in_short": "as §1"}, "[25]": {"test_system": "oat, wild (wild oat, Avena fatua)", "experiment": "Test A postemergence application, visual injury rating 0-100", "in_short": "as §1"}, "[26]": {"test_system": "corn (Zea mays)", "experiment": "Test A postemergence application, visual injury rating 0-100", "in_short": "as §1"}, "[27]": {"test_system": "wheat (Triticum aestivum)", "experiment": "Test A postemergence application, visual injury rating 0-100", "in_short": "as §1"}, "[28]": {"test_system": "ragweed (common ragweed, Ambrosia artemisiifolia)", "experiment": "Test A postemergence application, visual injury rating 0-100", "in_short": "as §1"}, "[29]": {"settings": "62 g ai/ha, 0 = no effect, 100 = complete control"}, "[30]": {"settings": "62 g ai/ha, postemergence, 10 days, 0 = no effect, 100 = complete control"}, "[31]": {"settings": "Postemergence, 16 g ai/ha, greenhouse 10 days, 0 no effect, 100 complete control"}}, "data": [{"smiles": "CC1(C(=O)NC2CC=C(C(=O)OCC(F)F)C2)CN(c2cc(Cl)cc(Cl)c2)C(=O)O1", "note": "(stereo not drawn) [Compound 153]", "values": [{"measurement": "Foxtail, Green plant response rating", "setting": "[1]; 16 g ai/ha, 0 to 100 scale", "result": 0}, {"measurement": "Foxtail, Green plant response rating (0-100)", "setting": "[1]; [29]", "result": 0}, {"measurement": "Pigweed, Palmer plant response rating", "setting": "[2]; 16 g ai/ha, 0 to 100 scale", "result": 0}, {"measurement": "Pigweed, Palmer plant response rating (0-100)", "setting": "[2]; [29]", "result": 0}, {"measurement": "Barnyardgrass plant response rating", "setting": "[3]; 16 g ai/ha, 0 to 100 scale", "result": 0}, {"measurement": "Barnyardgrass plant response rating (0-100)", "setting": "[3]; [29]", "result": 20}, {"measurement": "Ryegrass, Italian plant response rating", "setting": "[4]; 16 g ai/ha, 0 to 100 scale", "result": 0}, {"measurement": "Ryegrass, Italian plant response rating (0-100)", "setting": "[4]; [29]", "result": 0}, {"measurement": "Kochia plant response rating", "setting": "[5]; 16 g ai/ha, 0 to 100 scale", "result": 0}, {"measurement": "Kochia plant response rating (0-100)", "setting": "[5]; [29]", "result": 0}, {"measurement": "Blackgrass plant response rating", "setting": "[6]; 16 g ai/ha, 0 to 100 scale", "result": 0}, {"measurement": "Blackgrass plant response rating (0-100)", "setting": "[6]; [29]", "result": 0}, {"measurement": "Soybean plant response rating", "setting": "[7]; 16 g ai/ha, 0 to 100 scale", "result": 0}, {"measurement": "Soybean plant response rating (0-100)", "setting": "[7]; [29]", "result": 10}, {"measurement": "Oat, Wild plant response rating", "setting": "[8]; 16 g ai/ha, 0 to 100 scale", "result": 0}, {"measurement": "Oat, Wild plant response rating (0-100)", "setting": "[8]; [29]", "result": 0}, {"measurement": "Corn plant response rating", "setting": "[9]; 16 g ai/ha, 0 to 100 scale", "result": 0}, {"measurement": "Corn plant response rating (0-100)", "setting": "[9]; [29]", "result": 0}, {"measurement": "Wheat plant response rating", "setting": "[10]; 16 g ai/ha, 0 to 100 scale", "result": 0}, {"measurement": "Wheat plant response rating (0-100)", "setting": "[10]; [29]", "result": 0}, {"measurement": "Ragweed plant response rating", "setting": "[11]; 16 g ai/ha, 0 to 100 scale", "result": 0}, {"measurement": "Ragweed plant response rating (0-100)", "setting": "[11]; [29]", "result": 0}, {"measurement": "Plant response rating, Barnyardgrass (0 to 100 scale, 0 is no effect and 100 is complete control)", "setting": "[12]", "result": 0}, {"measurement": "Plant response rating, Ducksalad (0 to 100 scale, 0 is no effect and 100 is complete control)", "setting": "[13]", "result": 0}, {"measurement": "Plant response rating, Sedge, Umbrella (0 to 100 scale, 0 is no effect and 100 is complete control)", "setting": "[14]", "result": 0}, {"measurement": "Plant response rating, Rice (0 to 100 scale, 0 is no effect and 100 is complete control)", "setting": "[15]", "result": 0}, {"measurement": "Foxtail, Green plant response rating (0-100)", "setting": "[16]; [30]", "result": 0}, {"measurement": "Foxtail, Green plant response rating (0 to 100 scale)", "setting": "[16]; [31]", "result": 0}, {"measurement": "Horseweed plant response rating (0-100)", "setting": "[17]; [30]", "result": 0}, {"measurement": "Horseweed plant response rating (0 to 100 scale)", "setting": "[17]; [31]", "result": 20}, {"measurement": "Pigweed, Palmer plant response rating (0-100)", "setting": "[18]; [30]", "result": 0}, {"measurement": "Pigweed, Palmer plant response rating (0 to 100 scale)", "setting": "[18]; [31]", "result": 0}, {"measurement": "Barnyardgrass plant response rating (0-100)", "setting": "[19]; [30]", "result": 0}, {"measurement": "Barnyardgrass plant response rating (0 to 100 scale)", "setting": "[19]; [31]", "result": 0}, {"measurement": "Ryegrass, Italian plant response rating (0-100)", "setting": "[20]; [30]", "result": 0}, {"measurement": "Ryegrass, Italian plant response rating (0 to 100 scale)", "setting": "[20]; [31]", "result": 0}, {"measurement": "Galium plant response rating (0 to 100 scale)", "setting": "[21]", "result": 0}, {"measurement": "Kochia plant response rating (0-100)", "setting": "[22]; [30]", "result": 0}, {"measurement": "Kochia plant response rating (0 to 100 scale)", "setting": "[22]; [31]", "result": 0}, {"measurement": "Blackgrass plant response rating (0-100)", "setting": "[23]; [30]", "result": 90}, {"measurement": "Blackgrass plant response rating (0 to 100 scale)", "setting": "[23]; [31]", "result": 80}, {"measurement": "Soybean plant response rating (0-100)", "setting": "[24]; [30]", "result": 0}, {"measurement": "Soybean plant response rating (0 to 100 scale)", "setting": "[24]; [31]", "result": 0}, {"measurement": "Oat, Wild plant response rating (0-100)", "setting": "[25]; [30]", "result": 0}, {"measurement": "Oat, Wild plant response rating (0 to 100 scale)", "setting": "[25]; [31]", "result": 0}, {"measurement": "Corn plant response rating (0-100)", "setting": "[26]; [30]", "result": 0}, {"measurement": "Corn plant response rating (0 to 100 scale)", "setting": "[26]; [31]", "result": 0}, {"measurement": "Wheat plant response rating (0-100)", "setting": "[27]; [30]", "result": 0}, {"measurement": "Wheat plant response rating (0 to 100 scale)", "setting": "[27]; [31]", "result": 0}, {"measurement": "Ragweed plant response rating (0-100)", "setting": "[28]; [30]", "result": 0}, {"measurement": "Ragweed plant response rating (0 to 100 scale)", "setting": "[28]; [31]", "result": 0}]}]}
